Tested on: Arabidopsis PR1 promoter
Experiment: GUS florescence assay of promoter::GUS plants after SA application, Arabidopsis PR1 promoter
Format: in vivo
Settings: 5 mM SA spray
From the text: A binary promoter::reporter plasmid (pNOV2374) for Arabidopsis transformation was constructed. The regulatory/promoter sequence was fused to the GUS reporter gene (Jefferson et al. (1987) EMBO J 6: 3901-3907) by recombination using […] Technology according to the manufacturer's protocol as described in the Instruction Manual (LifeTechnologies, Rockville, Md.). The construct was then transformed into Agrobacterium tumefaciens strains by electroporation. pNOV2374 is a binary vector with a VS1 origin of replication, a copy of the Agrobacterium virg gene in the backbone, and a Basta® resistance selectable marker cassette between the left and right border sequences of the T-DNA. The Basta® selectable marker cassette comprises the Agrobacterium tumefaciens manopine synthase promoter (AtMas) (Barker et al., Plant Mol. Biol. 2, 335-350 (1983)) operably linked to the gene encoding Basta® resistance (i.e., the “BAR” gene, phosphinothricin acetyl transferase) (White et al., Nucl Acids Res 18: 1062 (1990)) and the 35S terminator. The AtMas promoter, the BAR coding sequence, and the 35S terminator are located at nt 4211 to nt 4679, nt 4680 to nt 5228, and nt 5263 to nt 5488, respectively, of pNOV2374. The vector contains […] recombination components, which were introduced into the binary vector backbone by ligating a blunt-ended cassette containing attR sites, ccdB, and a cholramphenicol resistance marker using the […] Vector Conversion System (LifeTechnologies, Rockville, Md.). The […] cassette was located between nt 126 and 1818 of pNOV2374. The promoter cassettes were inserted through an LR recombination reaction whereby the DNA sequence of pNOV2374 between nt 126 and nt 1818 were removed and replaced with the promoter of interest flanked by att sequences. […] The GIG gene (SEQ ID NO:29) contains the ST-LS1 intron from Solanum tuberosum at nt 385 to nt 576 of GUS (obtained from Dr. Stanton […], Purdue University, and described in Narasimhulu, et al. (1996) Plant Cell 8: 873-886.). The orientation of the selectable marker and promoter-reporter cassettes in the binary vector construct was as follows: For the purpose of comparing promoter activity, additional constructs were produced with the known Arabidopsis PR1 (SEQ ID NO:30) and SMAS (SEQ ID NO:31) promoters (see Plant J. 16 (2) 223-233 (1998) and Plant Mol. Biol. 20 (2) 219-233 (1992), respectively) operatively linked to the GIG gene (SEQ ID NO:29) and the […]. […] The treatment was applied as a fine mist to the leaves. […] For quantitative analysis of promoter activity following induction treatments or in various Arabidopsis tissues and organs, GUS expression is measured florometrically. Tissue samples were harvested and ground in ice cold GUS extraction buffer (50 mM Na2HPO4 pH 7.0, 5 mM DTT, 1 mM Na2EDTA, 0.1% TritonX100, 0.1% sarcosyl). Ground samples were spun in a microfuge at 10,000 rpm for 15 minutes at 4° C. Following centrifugation, the supernatant was removed for the GUS assay and for a protein concentration determination. To measure GUS activity, the plant extract was assayed in GUS assay buffer (50 mM Na2HPO4 pH 7.0, 5 mM DTT, 1 mM Na2EDTA, 0.1% TritonX100, 0.1% sarcosyl, 1 mM 4-Methylumbelliferyl-beta-D-glucuronic acid dihydrate (MUG)), pre-warmed to 37° C. Reactions were incubated, and 100 uL aliquots were removed at 10 minute intervals over 30 minutes to stop the reaction by adding the 100 uL aliquots to tubes containing 900 uL of 2% Na2CO3. The stopped reactions were then read on a Tecan Spectroflourometer at 365 nm excitation and 455 emission wavelengths. Protein concentrations were determined using the BCA assay following the manufacturer's protocol. GUS activity is expressed as pmol MU/mg protein/min.

## O=C(O)c1ccccc1O [SA, salicylic acid]
2 h
  GUS Activity Induced by SA: 57.7 pmol/mg protein/min
  GUS activity Fold-change relative to T0 (uninduced): 3.4 fold
4 h
  GUS Activity Induced by SA: 254.7 pmol/mg protein/min
  GUS activity Fold-change relative to T0 (uninduced): 15.2 fold
8 h
  GUS Activity Induced by SA: 206.5 pmol/mg protein/min
24 h
  GUS Activity Induced by SA: 393.1 pmol/mg protein/min
  GUS activity Fold-change relative to T0 (uninduced): 23.4 fold

— patent US7199286B2, “Plant-derived novel pathogen and SAR-induction chemical induced promoters, and fragments thereof” (Syngenta Participations AG, priority 1999, dated 2007)
